This passage reports IC50, CC50 and EC50 results from US11124497B1, “Inhibitors of cysteine proteases and methods of use thereof” (priority 2020, dated 2021).

One data set concerns the target 229E mPRO (Human coronavirus 229E (HCoV-229E), UniProt P0C6X1). Description: 229E mPRO enzymatic assay. The class given is biochemical, Human Coronavirus (HCov) 229E. The note with it: read-out: 229E mPRO IC50.
The target of a further data set is SARS-COV2 Mpro (Severe acute respiratory syndrome coronavirus 2 (2019-nCoV) (SARS-CoV-2), UniProt P0DTD1). In words: COVID-19 (nCoV-2019, SARS-CoV2) Mpro enzymatic assay. It is filed as biochemical. The note with it: 25 nM Mpro, 25 μM substrate.
A short description of data set [1]: Cytotoxicity under 229E CPE assay conditions without virus infection (CellTiter Glo).
In a further data set the test system is HCoV 229E. Description: HCoV 229E cytopathic effect (CPE) assay. The following applies: unidentified human coronavirus, CellTiter Glo, read-out: 229 ECPE EC50. The class given is cell-based, Human Coronavirus (HCov) 229E. The procedure: Compounds were assayed using standard methods against multiple coronaviral strains, including HCoV 229E and OC43 strains. The antiviral activity of compounds was calculated based on the protection of the virus-induced CPE at each concentration normalized by the virus control.
Cytopathic effect (CPE) was measured by CellTiter Glo following the manufacturer's manual. The antiviral activity of compounds was calculated based on the protection of the virus-induced CPE at each concentration normalized by the virus control.

Chain of 229E mPRO (P0C6X1 2966-3267 limits assumed): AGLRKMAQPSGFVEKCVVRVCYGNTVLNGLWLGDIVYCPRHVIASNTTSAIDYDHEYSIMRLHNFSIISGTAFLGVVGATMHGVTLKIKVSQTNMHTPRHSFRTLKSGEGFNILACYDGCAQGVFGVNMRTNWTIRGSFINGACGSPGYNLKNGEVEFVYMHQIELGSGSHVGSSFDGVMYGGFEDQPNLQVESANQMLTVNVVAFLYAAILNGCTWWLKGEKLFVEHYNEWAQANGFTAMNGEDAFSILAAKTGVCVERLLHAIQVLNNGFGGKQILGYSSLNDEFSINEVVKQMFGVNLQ
Procedure for 229E mPRO: Compounds were assayed using standard methods to assess compound activity and IC50. […] The assay buffer contained 20 mM of Tris-HCl (pH 7.3), 100 mM of NaCl, 1 mM of EDTA, 5 mM of TCEP and 0.1% BSA.
The compounds were added to an assay plate.
IC50 values of compounds were calculated with the GraphPad Prism software using the nonlinear regression model of log(inhibitor) vs. response—Variable slope (four parameters). The inhibition activity was calculated using the formula below, IC50 values was calculated using the Inhibition % data. Inhibition %=[(Sample−Average ZPE)/(Average HPE−Average ZPE)]*100%^# • ^#HEP: Hundred percent effect controls. […] Containing enzyme+substrate, no compound. • Sample: Compound activity testing wells. Containing compound+enzyme+substrate. • BG: Compound background control wells. Containing compound+substrate, no enzyme.

A word on the IC50: it is the point on the concentration scale where inhibition reaches its midpoint. Turning to `COc1cccc2[nH]c(C(=O)N[C@@H](CC(C)C)C(=O)N[C@@H](C#N)Cc3cc(=O)[nH]c4ccccc34)cc12` (mixture of isomers) [Compound 237], the 50% inhibitory concentration (IC50) at 229E mPRO and against SARS-COV2 Mpro was over 30 µM each time.
With `COc1cccc2[nH]c(C(=O)N[C@@H](CC(C)C)C(=O)N[C@H](C#N)Cc3cc[nH]n3)cc12` (mixture of isomers) [Compound 241], the concentration for half-maximal inhibition (IC50) at 229E mPRO and on SARS-COV2 Mpro was over 30 µM in each case.
In data set [1], `CC(C)CC(NC(=O)c1nc2ncccc2[nH]1)C(=O)NC(C#N)CC1CCNC1=O` (single isomer, unassigned) [130 (Isomer 1)] came in with a CC50 of over 30 µM.
Turning to `CC(C)(C)OC(=O)N1CCCCC12CCN([C@@H](CC1CC1)C(=O)N[C@H](C#N)C[C@@H]1CCNC1=O)C2=O` (single isomer, unassigned) [473 (Isomer 2)], the IC50 at 229E mPRO and at SARS-COV2 Mpro was over 30 µM in each case.
Take `COc1cccc2[nH]c(C(=O)N[C@@H](CC3CC3)C(=O)N[C@@]3(C#N)CC4CCC3[C@H]3C(=O)NC(=O)[C@@H]43)cc12` (single isomer, unassigned) [489 (Isomer 1)]: the IC50 at 229E mPRO and at SARS-COV2 Mpro was over 30 µM each time.
For the molecule `N#CC1(NC(=O)[C@H](CC2CC2)NC(=O)OCc2ccccc2)C[C@H]2CC[C@@H]1[C@H]1C(=O)NC(=O)[C@@H]21` (single isomer, unassigned) [495 (Isomer 1)], the IC50 on 229E mPRO and at SARS-COV2 Mpro was over 30 µM each time.
The term EC50 denotes the concentration at which the effect is half-maximal. In the case of `COc1cccc2[nH]c(C(=O)N3CC4(CCC4)CC3C(=O)N[C@H](C#N)C[C@@H]3CCCNC3=O)cc12` (single isomer, unassigned) [719 (Isomer 2)], the EC50 in the data set with HCoV 229E was under 22 µM. For the same molecule, the concentration for half-maximal inhibition (IC50) at 229E mPRO and on SARS-COV2 Mpro was under 22 µM each time.
In the case of `COc1cccc2[nH]c(C(=O)N[C@@H](CC(C)C)C(=O)N[C@@H](C[C@@H]3CCNC3=O)C(O)C#N)cc12` (stereo partly drawn) [Compound 135, N-[(1S)-1-[[(1S)-2-cyano-2-hydroxy-1-[[(3S)-2-oxopyrrolidin-3-yl]methyl]ethyl]carbamoyl]-3-methyl-butyl]-4-methoxy-1H-indole-2-carboxamide], the half-maximal effective concentration (EC50) in the data set on HCoV 229E is under 22 µM. Further, in “in vitro”, the CC50 was over 30 µM.
For the molecule `COc1cccc2[nH]c(C(=O)N[C@H](C(=O)N[C@H](C#N)C[C@@H]3CCNC3=O)C3Cc4ccccc4C3)cc12` [Compound 149, N-[(1S)-2-[[(1S)-1-cyano-2-[(3S)-2-oxopyrrolidin-3-yl]ethyl]amino]-1-indan-2-yl-2-oxo-ethyl]-4-methoxy-1H-indole-2-carboxamide], in the data set with HCoV 229E, the 50% effective concentration (EC50) is 2 to 10 µM. Besides, on 229E mPRO, the 50% inhibitory concentration (IC50) lay within 2 to 10 µM.
`COc1cccc2[nH]c(C(=O)N3CC(c4ccccc4)CC3C(=O)NC(C#N)CC3CCNC3=O)cc12` (stereo not drawn) [Compound 170]: in “in vitro”, the CC50 is over 30 µM.
On to `COc1cccc2[nH]c(C(=O)N[C@@H](CC(C)C)C(=O)N[C@H](C#N)Cc3cncn3C)cc12` [Compound 225, N-[(1S)-1-[[(1S)-1-cyano-2-(3-methylimidazol-4-yl)ethyl]carbamoyl]-3-methyl-butyl]-4-methoxy-1H-indole-2-carboxamide], for which the IC50 at 229E mPRO and against SARS-COV2 Mpro was over 30 µM in each case.
Turning to `N#C[C@H](C[C@@H]1CCNC1=O)NC(=O)[C@H](CC1CC1)n1ccc2[nH]cnc2c1=O` [Compound 269], the 50% inhibitory concentration (IC50) on 229E mPRO and at SARS-COV2 Mpro was over 30 µM throughout.
On to `COc1cccc2[nH]c(C(=O)N[C@@H](CC3CC3)C(=O)N[C@@]3(C#N)CCc4cccnc4C3)cc12` [Compound 279], for which the concentration for half-maximal inhibition (IC50) at 229E mPRO and against SARS-COV2 Mpro was over 30 µM each time.
On to `COc1cccc2[nH]c(C(=O)N[C@@H](CC(C)C)C(=O)N[C@@H](C[C@@H]3CCNC3=O)C(C#N)Nc3ccccc3)cc12` (stereo partly drawn) [Compound 327], for which, in the data set with HCoV 229E, the EC50 is 2 to 10 µM. Further, the IC50 at 229E mPRO and against SARS-COV2 Mpro was under 22 µM in each case.
As for `CCCN1C(=N)C([C@H](C[C@@H]2CCNC2=O)NC(=O)[C@H](CC(C)C)NC(=O)c2cc3c(OC)cccc3[nH]2)OC1=O` (stereo partly drawn) [Compound 355], the EC50 in the data set on HCoV 229E was over 30 µM. The concentration for half-maximal inhibition (IC50) at 229E mPRO is 2 to 10 µM.
On the same counts, the results for `CCCOc1cccc2[nH]c(C(=O)N[C@@H](CC(C)C)C(=O)N[C@H](C#N)C[C@@H]3CCNC3=O)cc12` [Compound 379] are under 22 µM and under 22 µM.
With `CC[C@H]1CN(C(=O)c2cc3c(OC)cccc3[nH]2)[C@@H]1C(=O)N[C@H](C#N)C[C@@H]1CCNC1=O` [Compound 391], the half-inhibitory concentration (IC50) on 229E mPRO and against SARS-COV2 Mpro was over 30 µM throughout.
`COc1cccc2[nH]c(C(=O)N3C[C@H](OC)C[C@H]3C(=O)N[C@H](C#N)C[C@@H]3CCNC3=O)cc12` [Compound 407]: the EC50 with HCoV 229E is under 22 µM. Also, at 229E mPRO, the IC50 is under 22 µM.
`COc1cccc2[nH]c(C(=O)N[C@@H](CC(C)C)C(=O)N[C@H](C#N)Cc3ccccn3)cc12` [Compound 439]: the IC50 at 229E mPRO is over 30 µM; on SARS-COV2 Mpro, 10 to 30 µM.
For the molecule `N#C[C@H](C[C@@H]1CCNC1=O)NC(=O)[C@@H]1CS[C@H]2CC[C@H](N)C(=O)N21` [Compound 479], the IC50 on 229E mPRO is 10 to 30 µM; at SARS-COV2 Mpro, over 30 µM.
On the same counts, the results for `N#C[C@H](C[C@@H]1CCNC1=O)NC(=O)[C@@H]1CCc2ccc(NCC(=O)Oc3ccccc3)c(=O)n21` [Compound 483] are over 30 µM and over 30 µM.
As to `N#C[C@H](C[C@@H]1CCNC1=O)NC(=O)[C@@H]1CCc2ccc(NCC(=O)O)c(=O)n21` [Compound 501], the IC50 at 229E mPRO and against SARS-COV2 Mpro was over 30 µM throughout.
With `CC(C)C[C@H](NC(=O)c1cc2c(OC(F)F)cccc2[nH]1)C(=O)N[C@H](C#N)C[C@@H]1CCNC1=O` [Compound 509], in the data set with HCoV 229E, the concentration giving a half-maximal response (EC50) is under 22 µM. Moreover, the IC50 at 229E mPRO is under 22 µM.
Turning to `N#C[C@H](C[C@@H]1CCNC1=O)NC(=O)[C@H](CC1CC1)NC(=O)c1cc2cc(Cl)ccc2[nH]1` [Compound 519], the EC50 in the data set with HCoV 229E is under 22 µM. At 229E mPRO, the IC50 is under 22 µM.
`N#C[C@H](C[C@@H]1CCNC1=O)NC(=O)[C@H](CC1CC1)NC(=O)c1cc2cccc(Cl)c2[nH]1` [Compound 531, 7-chloro-N-[(1S)-2-[[(1S)-1-cyano-2-[(3S)-2-oxopyrrolidin-3-yl]ethyl]amino]-1-(cyclopropylmethyl)-2-oxo-ethyl]-1H-indole-2-carboxamide]: the EC50 in the data set with HCoV 229E is under 22 µM. Besides, at 229E mPRO, the IC50 is under 22 µM.
For the molecule `COc1cccc2[nH]c(C(=O)N[C@@H](CC3CCC3)C(=O)N[C@H](C#N)C[C@@H]3CCNC3=O)cc12` [Compound 577], in the data set on HCoV 229E, the half-maximal effective concentration (EC50) is under 22 µM. For the same molecule, at 229E mPRO, the IC50 is under 22 µM.
Consider `CC(C)C[C@H](NC(=O)/C=C/c1ccc(Cl)cc1F)C(=O)N[C@H](C#N)C[C@@H]1CCNC1=O` [Compound 598], for which the EC50 in the data set with HCoV 229E was under 22 µM. The IC50 at 229E mPRO fell in the range of 2 to 10 µM.
Consider `COc1nccc2[nH]c(C(=O)N[C@@H](CC3CC3)C(=O)N[C@H](C#N)C[C@@H]3CCCNC3=O)cc12` [Compound 623], for which the IC50 at 229E mPRO and on SARS-COV2 Mpro was over 30 µM throughout.
Consider `COc1cccc2[nH]c(C(=O)N[C@@H](CC(C)(C)C)C(=O)N[C@H](C#N)C[C@@H]3CCCNC3=O)cc12` [Compound 643, N-[(1S)-1-[[(1S)-1-cyano-2-[(3S)-2-oxo-3-piperidyl]ethyl]carbamoyl]-3,3-dimethyl-butyl]-4-methoxy-1H-indole-2-carboxamide], for which the EC50 with HCoV 229E was under 22 µM. Besides, the half-inhibitory concentration (IC50) on 229E mPRO is under 22 µM.
In the case of `COc1cccc2[nH]c(C(=O)N[C@@H](CC(C)C)C(=O)N[C@@H](C[C@@H]3CCNC3=O)C(C#N)NCC(=O)O)cc12` (stereo partly drawn) [Compound 653], the EC50 in the data set on HCoV 229E was under 22 µM. In addition, the IC50 on 229E mPRO and at SARS-COV2 Mpro was under 22 µM throughout.
Take `COc1cccc2[nH]c(C(=O)N[C@H](CN[C@H](C#N)C[C@@H]3CCNC3=O)CC(C)(C)C)cc12` [Compound 659]: the IC50 on 229E mPRO and against SARS-COV2 Mpro was over 30 µM in each case.
